Measurements as given in ChEMBL document CHEMBL1152938, “Synthesis and structure-activity relationships of C-glycosylated oxadiazoles as inhibitors of glycogen phosphorylase” (Bioorg Med Chem, 2009).
Calls of active or inactive are those of the source. The calls are words filed in the database; no cut-off is given here.

Target: T1, Glycogen phosphorylase, muscle form (Oryctolagus cuniculus) (UniProt P00489)
T1 sequence (whole entry): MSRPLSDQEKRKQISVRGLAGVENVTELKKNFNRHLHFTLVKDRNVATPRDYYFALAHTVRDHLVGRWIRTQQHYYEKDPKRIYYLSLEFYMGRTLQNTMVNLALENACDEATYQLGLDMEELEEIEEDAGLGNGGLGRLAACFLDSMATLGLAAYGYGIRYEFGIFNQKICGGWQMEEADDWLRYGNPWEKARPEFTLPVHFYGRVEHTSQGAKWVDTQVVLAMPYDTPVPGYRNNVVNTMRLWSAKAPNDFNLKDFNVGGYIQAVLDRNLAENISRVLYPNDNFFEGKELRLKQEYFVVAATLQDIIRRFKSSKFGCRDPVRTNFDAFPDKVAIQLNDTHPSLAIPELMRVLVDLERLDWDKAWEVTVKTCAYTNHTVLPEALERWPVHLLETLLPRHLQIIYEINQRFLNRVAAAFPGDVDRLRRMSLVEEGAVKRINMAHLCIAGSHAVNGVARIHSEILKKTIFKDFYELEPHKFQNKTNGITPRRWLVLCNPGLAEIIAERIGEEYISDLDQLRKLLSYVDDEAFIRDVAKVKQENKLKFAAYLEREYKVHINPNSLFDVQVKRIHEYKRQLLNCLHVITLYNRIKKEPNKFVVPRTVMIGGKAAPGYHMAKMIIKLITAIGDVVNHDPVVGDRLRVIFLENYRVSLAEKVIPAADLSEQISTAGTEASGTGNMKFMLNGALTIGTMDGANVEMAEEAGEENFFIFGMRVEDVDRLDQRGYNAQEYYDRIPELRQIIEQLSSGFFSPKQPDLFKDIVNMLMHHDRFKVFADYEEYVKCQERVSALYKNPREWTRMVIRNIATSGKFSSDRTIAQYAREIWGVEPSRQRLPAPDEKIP
Experiment: Inhibition of rabbit muscle glycogen phosphorylase b at 625 uM

| Structure (SMILES) | inhibition |
| --- | --- |
| OC[C@H]1O[C@@H](c2nc(-c3ccc(OCc4ccccc4)cc3)no2)[C@H](O)[C@@H](O)[C@@H]1O | inactive |
| Cc1ccc(-c2nnc([C@@H]3O[C@H](CO)[C@@H](O)[C@H](O)[C@H]3O)o2)cc1 | inactive |
| OC[C@H]1O[C@@H](c2nnc(-c3ccccc3)o2)[C@H](O)[C@@H](O)[C@@H]1O | 10% |
| Cc1nc([C@@H]2O[C@H](CO)[C@@H](O)[C@H](O)[C@H]2O)no1 | inactive |
| Nc1ccc(-c2noc([C@@H]3O[C@H](CO)[C@@H](O)[C@H](O)[C@H]3O)n2)cc1 | 20% |
| OC[C@H]1O[C@@H](c2nnc(-c3ccc(O)cc3)o2)[C@H](O)[C@@H](O)[C@@H]1O | inactive |
| OC[C@H]1O[C@@H](c2nnc(-c3ccc4ccccc4c3)o2)[C@H](O)[C@@H](O)[C@@H]1O | 10% |
| OC[C@H]1O[C@@H](c2nnc(-c3cccc4ccccc34)o2)[C@H](O)[C@@H](O)[C@@H]1O | 10% |
| OC[C@H]1O[C@@H](c2noc(-c3ccccc3)n2)[C@H](O)[C@@H](O)[C@@H]1O | 10% |
| Nc1ccc(-c2nnc([C@@H]3O[C@H](CO)[C@@H](O)[C@H](O)[C@H]3O)o2)cc1 | inactive |
| COc1ccc(-c2nnc([C@@H]3O[C@H](CO)[C@@H](O)[C@H](O)[C@H]3O)o2)cc1 | inactive |
| O=[N+]([O-])c1ccc(-c2nc([C@@H]3O[C@H](CO)[C@@H](O)[C@H](O)[C@H]3O)no2)cc1 | inactive |
| OC[C@H]1O[C@@H](c2noc(-c3cccc4ccccc34)n2)[C@H](O)[C@@H](O)[C@@H]1O | inactive |
| O=[N+]([O-])c1ccc(-c2nnc([C@@H]3O[C@H](CO)[C@@H](O)[C@H](O)[C@H]3O)o2)cc1 | inactive |

Target: T2, Glycogen phosphorylase, muscle form (Oryctolagus cuniculus, UniProt P00489)
T2 sequence (P00489 whole entry): T1 sequence (whole entry)

| Structure (SMILES) | Ki | IC50 |
| --- | --- | --- |
| COc1ccc(-c2noc([C@@H]3O[C@H](CO)[C@@H](O)[C@H](O)[C@H]3O)n2)cc1 | 20.4 µM | – |
| OC[C@H]1O[C@@H](c2nc(-c3ccccc3)no2)[C@H](O)[C@@H](O)[C@@H]1O | 64 µM | – |
| OC[C@H]1O[C@@H](c2noc(-c3ccc4ccccc4c3)n2)[C@H](O)[C@@H](O)[C@@H]1O | 38 µM | – |
| OC[C@H]1O[C@@H](c2nc(-c3ccc4c(c3)OCO4)no2)[C@H](O)[C@@H](O)[C@@H]1O | – | > 625 µM |
| O=C(NC(=O)c1ccc([N+](=O)[O-])cc1)N[C@@H]1O[C@H](CO)[C@@H](O)[C@H](O)[C@H]1O | 3.3 µM | – |
| OC[C@H]1O[C@@H](c2nc(-c3cccc4ccccc34)no2)[C@H](O)[C@@H](O)[C@@H]1O | 19 µM | – |
| OC[C@H]1O[C@@H](c2nc(-c3ccc4ccccc4c3)no2)[C@H](O)[C@@H](O)[C@@H]1O | 2.4 µM | – |
| COc1ccc(-c2nc([C@@H]3O[C@H](CO)[C@@H](O)[C@H](O)[C@H]3O)no2)cc1 | – | 550 µM |
| Cc1ccc(-c2nc([C@@H]3O[C@H](CO)[C@@H](O)[C@H](O)[C@H]3O)no2)cc1 | – | 350 µM |
| OC[C@H]1O[C@@H](c2nc3ccccc3s2)[C@H](O)[C@@H](O)[C@@H]1O | 76 µM | – |
| Cc1nnc(C2O[C@H](CO)[C@@H](O)[C@H](O)[C@H]2O)o1 (single isomer, unassigned) | 145 µM | – |
| Cc1ccc(-c2noc([C@@H]3O[C@H](CO)[C@@H](O)[C@H](O)[C@H]3O)n2)cc1 | 8.8 µM | – |
| O=[N+]([O-])c1ccc(-c2noc([C@@H]3O[C@H](CO)[C@@H](O)[C@H](O)[C@H]3O)n2)cc1 | – | 650 µM |
| OC[C@H]1O[C@@H](c2nc(-c3ccc(O)cc3)no2)[C@H](O)[C@@H](O)[C@@H]1O | 19.4 µM | – |
| Nc1ccc(C(=O)NC(=O)N[C@@H]2O[C@H](CO)[C@@H](O)[C@H](O)[C@H]2O)cc1 | 6 µM | – |
| Cc1ccc(C(=O)N[C@@H]2O[C@H](CO)[C@@H](O)[C@H](O)[C@H]2O)cc1 | – | 4500 µM |
| Cc1ccc(C(=O)NC(=O)N[C@@H]2O[C@H](CO)[C@@H](O)[C@H](O)[C@H]2O)cc1 | 2.3 µM | – |
| O=C(NC(=O)c1cccc2ccccc12)N[C@@H]1O[C@H](CO)[C@@H](O)[C@H](O)[C@H]1O | 15 µM | – |
| O=C(NC(=O)c1ccc(O)cc1)N[C@@H]1O[C@H](CO)[C@@H](O)[C@H](O)[C@H]1O | 6.3 µM | – |
